What was measured:
IRAK1 = IRAK1 (Homo sapiens, UniProt P51617); experiment: Kinase screen; format: biochemical
Description: (§1) With verapamil used as a positive control.
(§2) V. Distribution coefficient (LogD7.4)

ULK1 = ULK1 (Homo sapiens, UniProt O75385); experiment: Kinase screen; format: biochemical
Description: as §1, §2

CK2 = CK2 (Homo sapiens, UniProt P68400); experiment: Kinase screen; format: biochemical
Description: as §1, §2

MLK3 = MLK3 (Homo sapiens, UniProt Q16584); experiment: Kinase screen; format: biochemical
Description: as §1, §2

ROCK 2 = ROCK 2 (Homo sapiens, UniProt O75116); experiment: Kinase screen; format: biochemical
Description: as §1, §2

Lck = Lck (Homo sapiens, UniProt P06239); experiment: Kinase screen; format: biochemical
Description: as §1, §2

OSR1 = OSR1 (Homo sapiens, UniProt O95747); experiment: Kinase screen; format: biochemical
Description: as §1, §2

PKCa = PKCa (Homo sapiens, UniProt P17252); experiment: Kinase screen; format: biochemical
Description: as §1, §2

MAP4K5 = MAP4K5 (Homo sapiens, UniProt Q9Y4K4); experiment: Kinase screen; format: biochemical
Description: as §1, §2

IGF-1R = IGF-1R (Homo sapiens, UniProt P08069); experiment: Kinase screen; format: biochemical
IGF-1R, sequence (P08069 31-1367): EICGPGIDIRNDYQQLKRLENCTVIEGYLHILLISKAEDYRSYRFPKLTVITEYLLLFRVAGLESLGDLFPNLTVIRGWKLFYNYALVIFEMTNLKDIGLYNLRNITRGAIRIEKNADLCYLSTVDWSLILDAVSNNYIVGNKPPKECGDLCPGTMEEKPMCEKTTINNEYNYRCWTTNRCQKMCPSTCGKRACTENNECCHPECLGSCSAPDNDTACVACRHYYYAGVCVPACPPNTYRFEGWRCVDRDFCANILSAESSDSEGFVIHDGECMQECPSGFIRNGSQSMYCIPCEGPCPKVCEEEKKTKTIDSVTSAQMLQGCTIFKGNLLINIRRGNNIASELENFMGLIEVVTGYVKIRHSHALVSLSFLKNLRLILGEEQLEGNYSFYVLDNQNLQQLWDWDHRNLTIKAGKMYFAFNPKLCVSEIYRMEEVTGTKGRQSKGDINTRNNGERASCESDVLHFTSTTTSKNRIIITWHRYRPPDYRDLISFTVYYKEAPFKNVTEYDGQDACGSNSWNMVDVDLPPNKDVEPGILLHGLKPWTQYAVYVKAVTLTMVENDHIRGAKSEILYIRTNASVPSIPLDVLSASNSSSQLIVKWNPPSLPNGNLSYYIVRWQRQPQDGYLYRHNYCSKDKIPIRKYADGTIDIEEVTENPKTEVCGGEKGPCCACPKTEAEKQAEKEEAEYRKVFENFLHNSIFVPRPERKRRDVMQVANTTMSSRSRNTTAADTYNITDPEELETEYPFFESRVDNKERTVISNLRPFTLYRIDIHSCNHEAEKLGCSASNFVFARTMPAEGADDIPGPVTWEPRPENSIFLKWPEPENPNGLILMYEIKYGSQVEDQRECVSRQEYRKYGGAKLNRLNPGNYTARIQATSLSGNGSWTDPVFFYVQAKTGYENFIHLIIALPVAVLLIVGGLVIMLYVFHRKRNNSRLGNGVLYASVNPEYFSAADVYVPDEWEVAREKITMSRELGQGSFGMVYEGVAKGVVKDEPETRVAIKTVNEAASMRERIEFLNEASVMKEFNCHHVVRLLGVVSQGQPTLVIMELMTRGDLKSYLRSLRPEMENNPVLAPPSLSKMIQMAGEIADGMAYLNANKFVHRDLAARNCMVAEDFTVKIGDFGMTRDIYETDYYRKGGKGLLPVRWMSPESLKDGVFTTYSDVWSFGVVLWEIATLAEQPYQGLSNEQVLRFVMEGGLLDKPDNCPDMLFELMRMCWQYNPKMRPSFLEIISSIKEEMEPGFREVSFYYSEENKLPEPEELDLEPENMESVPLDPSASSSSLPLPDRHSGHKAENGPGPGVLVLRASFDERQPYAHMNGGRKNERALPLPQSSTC
Description: as §1, §2

TIE2 = TIE2 (Homo sapiens, UniProt Q02763); experiment: Kinase screen; format: biochemical
TIE2, sequence (Q02763 23-1124): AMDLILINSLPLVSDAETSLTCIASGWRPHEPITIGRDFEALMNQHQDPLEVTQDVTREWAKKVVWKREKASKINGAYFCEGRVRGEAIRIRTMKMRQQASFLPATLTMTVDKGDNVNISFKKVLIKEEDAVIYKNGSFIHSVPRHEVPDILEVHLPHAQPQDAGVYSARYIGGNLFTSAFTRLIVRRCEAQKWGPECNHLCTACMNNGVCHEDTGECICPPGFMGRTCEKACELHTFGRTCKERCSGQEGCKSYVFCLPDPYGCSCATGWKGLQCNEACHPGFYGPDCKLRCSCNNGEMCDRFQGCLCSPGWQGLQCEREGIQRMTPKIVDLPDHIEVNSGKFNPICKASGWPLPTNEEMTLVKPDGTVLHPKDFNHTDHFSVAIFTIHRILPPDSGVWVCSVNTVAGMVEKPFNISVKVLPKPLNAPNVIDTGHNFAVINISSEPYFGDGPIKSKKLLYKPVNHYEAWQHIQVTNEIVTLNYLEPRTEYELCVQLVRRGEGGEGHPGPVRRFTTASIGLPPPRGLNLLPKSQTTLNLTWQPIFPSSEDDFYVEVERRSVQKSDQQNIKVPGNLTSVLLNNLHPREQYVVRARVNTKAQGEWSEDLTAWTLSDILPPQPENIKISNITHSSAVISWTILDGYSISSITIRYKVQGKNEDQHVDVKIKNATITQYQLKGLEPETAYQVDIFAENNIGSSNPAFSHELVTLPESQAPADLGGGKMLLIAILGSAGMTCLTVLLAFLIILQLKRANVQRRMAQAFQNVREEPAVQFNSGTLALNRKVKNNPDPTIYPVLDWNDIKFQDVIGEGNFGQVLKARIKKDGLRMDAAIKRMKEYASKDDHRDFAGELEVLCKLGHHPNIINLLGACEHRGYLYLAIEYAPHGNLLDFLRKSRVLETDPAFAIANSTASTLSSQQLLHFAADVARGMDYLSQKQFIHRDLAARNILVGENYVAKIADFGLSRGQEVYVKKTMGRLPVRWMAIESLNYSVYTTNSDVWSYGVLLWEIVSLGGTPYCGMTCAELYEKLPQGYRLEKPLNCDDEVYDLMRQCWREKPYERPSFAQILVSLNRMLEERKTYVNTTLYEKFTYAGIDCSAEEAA
Description: as §1, §2

LKB1 = LKB1 (Homo sapiens, UniProt Q15831); experiment: Kinase screen; format: biochemical
Description: as §1, §2

VEG-FR = VEG-FR (Homo sapiens, UniProt P17948); experiment: Kinase screen; format: biochemical
Description: as §1, §2

MNK1 = MNK1 (Homo sapiens, UniProt Q9BUB5); experiment: Kinase screen; format: biochemical
Description: as §1, §2

p38d MAPK = p38d MAPK (Homo sapiens, UniProt O15264); experiment: Kinase screen; format: biochemical
p38d MAPK, sequence (O15264 whole entry): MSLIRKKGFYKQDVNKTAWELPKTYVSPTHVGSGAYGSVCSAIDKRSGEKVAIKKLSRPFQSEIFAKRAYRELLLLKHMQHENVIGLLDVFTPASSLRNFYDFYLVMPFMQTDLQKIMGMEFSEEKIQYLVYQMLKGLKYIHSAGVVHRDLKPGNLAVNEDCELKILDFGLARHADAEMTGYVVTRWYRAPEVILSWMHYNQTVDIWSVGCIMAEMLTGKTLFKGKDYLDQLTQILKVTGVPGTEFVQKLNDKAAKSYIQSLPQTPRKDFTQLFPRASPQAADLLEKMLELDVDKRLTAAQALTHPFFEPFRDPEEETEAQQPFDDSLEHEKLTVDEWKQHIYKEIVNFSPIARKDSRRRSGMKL
Description: as §1, §2

PAK2 = PAK2 (Homo sapiens, UniProt Q13177); experiment: Kinase screen; format: biochemical
Description: as §1, §2

PKBa = PKBa (Homo sapiens, UniProt P31749); experiment: Kinase screen; format: biochemical
Description: as §1, §2

EIF2AK3 = EIF2AK3 (Homo sapiens, UniProt Q9NZJ5); experiment: Kinase screen; format: biochemical
Description: as §1, §2

IR = IR (Homo sapiens, UniProt P06213); experiment: Kinase screen; format: biochemical
Description: as §1, §2

CHK2 = CHK2 (Homo sapiens, UniProt O96017); experiment: Kinase screen; format: biochemical
Description: as §1, §2

MST4 = MST4 (Homo sapiens, UniProt Q9P289); experiment: Kinase screen; format: biochemical
Description: as §1, §2

YES1 = YES1 (Homo sapiens, UniProt P07947); experiment: Kinase screen; format: biochemical
Description: as §1, §2

IRR = IRR (Homo sapiens, UniProt P14616); experiment: Kinase screen; format: biochemical
Description: as §1, §2

p38a MAPK = p38a MAPK (Homo sapiens, UniProt Q16539); experiment: Kinase screen; format: biochemical
Description: as §1, §2

PAK4 = PAK4 (Homo sapiens, UniProt O96013); experiment: Kinase screen; format: biochemical
Description: as §1, §2

NEK6 = NEK6 (Homo sapiens, UniProt Q9HC98); experiment: Kinase screen; format: biochemical
Description: as §1, §2

p38g MAPK = p38g MAPK (Homo sapiens, UniProt P53778); experiment: Kinase screen; format: biochemical
Description: as §1, §2

PIM1 = PIM1 (Homo sapiens, UniProt P11309); experiment: Kinase screen; format: biochemical
PIM1, sequence (P11309 whole entry): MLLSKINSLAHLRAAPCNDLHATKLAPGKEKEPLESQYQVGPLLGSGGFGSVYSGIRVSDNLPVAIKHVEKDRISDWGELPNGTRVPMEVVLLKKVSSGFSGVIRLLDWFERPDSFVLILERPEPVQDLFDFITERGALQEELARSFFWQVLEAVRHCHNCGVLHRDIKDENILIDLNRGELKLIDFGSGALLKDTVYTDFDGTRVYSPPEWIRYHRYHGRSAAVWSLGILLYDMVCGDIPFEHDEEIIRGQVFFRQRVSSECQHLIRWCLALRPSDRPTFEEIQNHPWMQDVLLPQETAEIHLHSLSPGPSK
Description: as §1, §2

EPH-B4 = EPH-B4 (Homo sapiens, UniProt P54760); experiment: Kinase screen; format: biochemical
Description: as §1, §2

MAPKAP-K3 = MAPKAP-K3 (Homo sapiens, UniProt Q16644); experiment: Kinase screen; format: biochemical
Description: as §1, §2

PKCz = PKCz (Homo sapiens, UniProt Q05513); experiment: Kinase screen; format: biochemical
PKCz, sequence (Q05513 whole entry): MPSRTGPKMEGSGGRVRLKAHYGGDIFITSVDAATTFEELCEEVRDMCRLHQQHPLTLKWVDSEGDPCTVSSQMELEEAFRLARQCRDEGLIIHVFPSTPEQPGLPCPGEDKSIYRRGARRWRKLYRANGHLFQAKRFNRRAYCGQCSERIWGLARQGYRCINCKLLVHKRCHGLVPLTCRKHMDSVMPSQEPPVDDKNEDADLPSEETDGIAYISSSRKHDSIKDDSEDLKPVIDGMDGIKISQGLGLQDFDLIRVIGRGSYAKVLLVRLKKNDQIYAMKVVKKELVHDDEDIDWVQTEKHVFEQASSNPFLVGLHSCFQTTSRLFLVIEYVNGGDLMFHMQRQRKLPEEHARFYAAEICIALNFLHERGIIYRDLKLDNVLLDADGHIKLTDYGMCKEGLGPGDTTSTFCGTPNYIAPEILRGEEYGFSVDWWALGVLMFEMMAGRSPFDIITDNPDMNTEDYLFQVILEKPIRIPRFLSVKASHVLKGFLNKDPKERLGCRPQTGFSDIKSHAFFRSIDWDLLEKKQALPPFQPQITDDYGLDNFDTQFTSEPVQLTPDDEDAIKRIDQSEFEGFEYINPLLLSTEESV
Description: as §1, §2

SRPK1 = SRPK1 (Homo sapiens, UniProt Q96SB4); experiment: Kinase screen; format: biochemical
SRPK1, sequence (Q96SB4 whole entry): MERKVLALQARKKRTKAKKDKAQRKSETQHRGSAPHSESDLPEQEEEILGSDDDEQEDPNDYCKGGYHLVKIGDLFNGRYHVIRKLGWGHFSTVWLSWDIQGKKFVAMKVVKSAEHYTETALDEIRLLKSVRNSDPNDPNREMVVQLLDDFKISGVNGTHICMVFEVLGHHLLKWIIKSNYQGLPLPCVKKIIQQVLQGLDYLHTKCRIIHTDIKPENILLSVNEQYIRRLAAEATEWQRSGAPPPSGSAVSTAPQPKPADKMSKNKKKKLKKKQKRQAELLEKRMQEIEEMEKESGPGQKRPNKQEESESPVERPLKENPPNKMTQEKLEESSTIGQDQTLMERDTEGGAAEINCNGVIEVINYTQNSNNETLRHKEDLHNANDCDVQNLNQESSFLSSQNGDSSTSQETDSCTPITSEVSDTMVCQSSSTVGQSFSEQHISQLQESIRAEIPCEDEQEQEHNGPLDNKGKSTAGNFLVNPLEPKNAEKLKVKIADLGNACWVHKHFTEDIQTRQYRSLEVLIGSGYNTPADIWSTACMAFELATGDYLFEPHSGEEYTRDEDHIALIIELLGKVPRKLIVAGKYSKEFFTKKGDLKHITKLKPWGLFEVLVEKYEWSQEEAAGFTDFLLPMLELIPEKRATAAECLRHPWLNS
Description: as §1, §2

ASK1 = ASK1 (Homo sapiens, UniProt Q99683); experiment: Kinase screen; format: biochemical
Description: as §1, §2

ABL = ABL (Homo sapiens, UniProt P00519); experiment: Kinase screen; format: biochemical
Description: as §1, §2

MARK1 = MARK1 (Homo sapiens, UniProt Q9P0L2); experiment: Kinase screen; format: biochemical
Description: as §1, §2

TGFBR1 = TGFBR1 (Homo sapiens, UniProt P36897); experiment: Kinase screen; format: biochemical
Description: as §1, §2

SIK2 = SIK2 (Homo sapiens, UniProt Q9H0K1); experiment: Kinase screen; format: biochemical
Description: as §1, §2

TTBK1 = TTBK1 (Homo sapiens, UniProt Q5TCY1); experiment: Kinase screen; format: biochemical
Description: as §1, §2

ZAP70 = ZAP70 (Homo sapiens, UniProt P43403); experiment: Kinase screen; format: biochemical
Description: as §1, §2

BRK = BRK (Homo sapiens, UniProt Q13882); experiment: Kinase screen; format: biochemical
Description: as §1, §2

RSK2 = RSK2 (Homo sapiens, UniProt P51812); experiment: Kinase screen; format: biochemical
Description: as §1, §2

JNK2 = JNK2 (Homo sapiens, UniProt P45984); experiment: Kinase screen; format: biochemical
Description: as §1, §2

PINK = settings: 1 μM
[1] = test system: P. falciparum clinical field isolates from The Gambia; experiment: Parasite reduction rate (PRR) assay with clinical isolates; format: cell-based

How did the activity at 1 µM (IRAK1) turn out when `CCN(CC)Cc1ccc(OC)c(-c2cc3c(-c4ccc(C(=O)O)c(C(C)C)c4)ccnc3[nH]2)c1` [analogue 1, 4-(2-(5-((Diethylamino)methyl)-2-methoxyphenyl)-1H-pyrrolo[2,3-b]pyridin-4-yl)-2-isopropylbenzoic Acid] was run?
Its activity at 1 µM is 6%.

And the activity at 1 µM (ULK1)?
Its activity at 1 µM is 80%.

And the activity at 1 µM (CK2)?
Its activity at 1 µM is 90%.

What about the activity at 1 µM (MLK3) of the same compound?
The activity at 1 µM was 107%.

And the activity at 1 µM (ROCK 2)?
Its activity at 1 µM is 92%.

And the activity at 1 µM (Lck)?
Its activity at 1 µM is 39%.

And the activity at 1 µM (OSR1)?
The activity at 1 µM was 38%.

And the activity at 1 µM (PKCa)?
Its activity at 1 µM is 64%.

And the activity at 1 µM (MAP4K5)?
The activity at 1 µM was 14%.

What about the activity at 1 µM (IGF-1R) of the same compound?
Its activity at 1 µM is 51%.

And the activity at 1 µM (TIE2)?
The activity at 1 µM was 120%.

What about the activity at 1 µM (LKB1) of the same compound?
Its activity at 1 µM is 115%.

What about the activity at 1 µM (VEG-FR) of the same compound?
Its activity at 1 µM is 80%.

And the activity at 1 µM (MNK1)?
Its activity at 1 µM is 0%.

What about the activity at 1 µM (p38d MAPK) of the same compound?
Its activity at 1 µM is 117%.

And the activity at 1 µM (PAK2)?
Its activity at 1 µM is 84%.

And the activity at 1 µM (PKBa)?
The activity at 1 µM was 115%.

What about the activity at 1 µM (EIF2AK3) of the same compound?
Its activity at 1 µM is 100%.

What about the activity at 1 µM (IR) of the same compound?
The activity at 1 µM was 77%.

What about the activity at 1 µM (CHK2) of the same compound?
Its activity at 1 µM is 77%.

And the activity at 1 µM (MST4)?
The activity at 1 µM was 59%.

What about the activity at 1 µM (YES1) of the same compound?
Its activity at 1 µM is 67%.

What about the activity at 1 µM (IRR) of the same compound?
The activity at 1 µM was 101%.

And the activity at 1 µM (p38a MAPK)?
The activity at 1 µM was 89%.

And the activity at 1 µM (PAK4)?
The activity at 1 µM was 105%.

And the activity at 1 µM (NEK6)?
The activity at 1 µM was 96%.

What about the activity at 1 µM (p38g MAPK) of the same compound?
The activity at 1 µM was 105%.

What about the activity at 1 µM (PIM1) of the same compound?
The activity at 1 µM was 107%.

And the activity at 1 µM (EPH-B4)?
The activity at 1 µM was 82%.

And the activity at 1 µM (MAPKAP-K3)?
The activity at 1 µM was 110%.

And the activity at 1 µM (PKCz)?
The activity at 1 µM was 121%.

And the activity at 1 µM (SRPK1)?
Its activity at 1 µM is 92%.

And the activity at 1 µM (ASK1)?
The activity at 1 µM was 91%.

And the activity at 1 µM (ABL)?
Its activity at 1 µM is 59%.

And the activity at 1 µM (MARK1)?
The activity at 1 µM was 52%.

What about the activity at 1 µM (TGFBR1) of the same compound?
Its activity at 1 µM is 6%.

What about the activity at 1 µM (SIK2) of the same compound?
The activity at 1 µM was 41%.

And the activity at 1 µM (TTBK1)?
Its activity at 1 µM is 102%.

What about the activity at 1 µM (ZAP70) of the same compound?
The activity at 1 µM was 59%.

And the activity at 1 µM (BRK)?
Its activity at 1 µM is 33%.

And the activity at 1 µM (RSK2)?
The activity at 1 µM was 87%.

And the activity at 1 µM (JNK2)?
Its activity at 1 µM is 62%.

What about the “% Activity” value (PINK) of the same compound?
Its value is 106%.

What about the “susceptibility of clinical isolates (PRR)” value [1] of the same compound?
The value was “total susceptibility”.

Reference: publication PMC7497403, “Development of Potent PfCLK3 Inhibitors Based on TCMDC-135051 as a New Class of Antimalarials” (Journal of Medicinal Chemistry, 2020)
